Measurements: paper PMC4102551, “Screening and Characterisation of Antimicrobial Properties of Semisynthetic Betulin Derivatives” (PLoS ONE, 2014)
In brackets after ≈: the same amount, converted by molar mass. Several values for one entry are separate records, joined by “and”; a condition that tells them apart may be missing. Identical values can stand only once.

Columns and labels:
[1] = tested on: C. albicans ATCC 90028; experiment: Broth microdilution assay, C. albicans; assay type: cell-based, Candida albicans; conditions: for Inhibitory effect (%) C. albicans ATCC 90028: 50 µM, 48 h at 35°C, inhibition of growth, mean ± SD
Procedure: (§1) Clinically used antimicrobial agents were selected based on international guidelines for antimicrobial testing and were utilised as reference compounds in the antimicrobial assays. The compounds were purchased from Sigma, Fluka and ICN Biomedicals. Stock solutions of the reference compounds were prepared either in double distilled sterile MilliQ water or in DMSO. Water solutions were sterilised through a 0.22 µm filter (VWR International). […] During the primary screening, these reference compounds were used as positive controls at the determined MIC on every plate.
(§2) Gram-negative strains Escherichia coli (ATCC 25922), Enterobacter aerogenes (ATCC 13048) and Pseudomonas aeruginosa (ATCC 27853), Gram-positive strains Staphylococcus aureus (ATCC 25923) and Enterococcus faecalis (ATCC 29212), and fungal strain Candida albicans (ATCC 90028) were obtained from Microbiologics Inc., and used for the antimicrobial screening. Strains were selected according to the guidelines set for clinical laboratories by Clinical and Laboratory Standards Institute [CLSI, formerly National Committee on Clinical Laboratory Standards [22]] and the European Committee on Antimicrobial Susceptibility Testing (EUCAST). Bacterial strains were grown on Mueller Hinton II Agar (MHA) (BBL, BD) and Mueller Hinton II broth (MHB) (BBL, BD), whereas Candida was initiated on Sabouraud Dextrose Agar (SDA) (Difco, BD) plates. Media were prepared into MilliQ water according to manufacturer’s instruction and autoclaved at 121°C for 15 min. Bacteria were plated on MHA plates and incubated at 37°C for 16–18 h. Bacterial suspension for the assays was prepared by subculturing the bacteria into MHB and by incubating at 37°C for 16–20 h at 110 rpm prior to the assay. Candida strain was grown on SDA plates at 27°C for 16–18 h and suspended into sterile 0.9% saline for the assay.
(§3) Antimicrobial screening assays were performed by broth microdilution method following the guidelines of CLSI and EUCAST. Bacterial suspensions were prepared as mentioned earlier and diluted with MHB to obtain a final inoculum of 5×10^5 colony-forming units (cfu)/mL in the assay for all the bacteria (based on OD620 values previously calibrated against plate counts). Candida suspension was prepared into sterile 0.9% saline solution as stated earlier. […] Assays were carried out in clear 96-well microtitre plates and initiated by dispensing an equal volume of microbial suspension and sample solution diluted into the assay medium into the wells. The plates were incubated for 24 h at 37°C (for Candida the incubation was at 35°C for 48 h) with agitation. Absorbance was measured at 620 nm with Victor plate reader (Wallac 1420, Perkin Elmer) at 0, 4 and 24 h with the bacteria, and at 0, 24 and 48 h with Candida. The antimicrobial activity of the samples was calculated from the absorbance values by comparing to the controls, and expressed as a percentage inhibition of growth. All the betulin derivatives were first assayed at the single concentration of 50 µM (two separate experiments, each with three replicates). […] The MIC90 value was expressed as the lowest concentration of compound that inhibited the microbial growth by >90%. The MIC90 results are means of three replicates from two separate experiments.

[2] = tested on: Huh-7 cells; experiment: in vitro; assay type: cell-based, human; conditions: 50 µM, 24 h exposure, ATP content, 5% FBS
Procedure: Huh-7 cells (derived from human hepatocellular carcinoma) were obtained as a gift from Prof. Ralf Bartenschlager (University of Heidelberg, Germany) and used for assessing the cytotoxicity against mammalian cells. HL cells (a heteroploid cell line used for propagating respiratory viruses) were used as a host cell line in the host-pathogen co-culture assay. […] Both cell lines were cultured at 37°C, 5% CO2 and 95% humidity.
The effect of the betulin derivatives on metabolic activity of Huh-7 cells was evaluated by measuring the intracellular ATP content of the cells after 24 h exposure to the compounds. In brief, cells were seeded at 20000 cells/well on white-walled microplates (PerkinElmer) and incubated at 37°C, 5% CO2 and 95% humidity. After culturing the cells overnight, the medium was replaced with the assay media (5% FBS) containing the sample and the cells were incubated for 24 h. Polymyxin B sulphate (15000 IU/mL) was used as a positive control. Following the incubation period, Promega’s CellTiter-Glo Cell Viability Assay was used to determine the intracellular ATP levels according to the manufacturer’s instructions. Cells were washed with 100 µL 6.7 mM PBS, pH 7.4 and 50 µL of fresh assay media and 50 µL of the CellTiter-Glo reagent were added into the wells. After 2 min shaking, followed by 10 min incubation at RT, luminometric signal was measured using Varioskan Flash plate reader (Thermo Fisher Scientific).

[3] = tested on: E. aerogenes ATCC 13048; experiment: Broth microdilution assay, E. aerogenes; assay type: cell-based, Enterobacter aerogenes; conditions: 50 µM, 24 h, inhibition of growth, mean ± SD
Procedure: as §1, §2, §3

[4] = tested on: E. coli ATCC 25922; experiment: Broth microdilution assay, E. coli; assay type: cell-based, Escherichia coli; conditions: 50 µM, 24 h, inhibition of growth, mean ± SD
Procedure: as §1, §2, §3

[5] = tested on: E. faecalis ATCC 29212; experiment: Broth microdilution assay, E. faecalis; assay type: cell-based, Enterococcus faecalis; conditions: 50 µM, 24 h, inhibition of growth, mean ± SD
Procedure: as §1, §2, §3

[6] = tested on: P. aeruginosa ATCC 27853; experiment: Broth microdilution assay, P. aeruginosa; assay type: cell-based, Pseudomonas aeruginosa; conditions: 50 µM, 24 h, inhibition of growth, mean ± SD
Procedure: as §1, §2, §3

[7] = tested on: S. aureus ATCC 25923; experiment: Broth microdilution assay, S. aureus; assay type: cell-based, Staphylococcus aureus; conditions: 50 µM, 24 h, inhibition of growth, mean ± SD
Procedure: as §1, §2, §3

MIC90 ([1]; Candida albicans, ATCC90028, lowest concentration inhibiting growth by >90%, read-out: MIC90 of positive control, C. albicans) | SMILES | Cytotoxicity (%) Huh-7 cells [2] | Inhibitory effect (%) C. albicans ATCC 90028 [1] | Inhibitory effect (%) E. aerogenes ATCC 13048 [3] | Inhibitory effect (%) E. coli ATCC 25922 [4] | Inhibitory effect (%) E. faecalis ATCC 29212 [5] | Inhibitory effect (%) P. aeruginosa ATCC 27853 [6] | Inhibitory effect (%) S. aureus ATCC 25923 [7]
2 µg/mL (≈ 2.16 µM) | C[C@@H]1[C@H](O)[C@@H](C)/C=C/C=C/C=C/C=C/C=C/C=C/C=C/[C@H](O[C@@H]2O[C@H](C)[C@@H](O)[C@H](N)[C@@H]2O)C[C@@H]2O[C@](O)(C[C@@H](O)C[C@@H](O)[C@H](O)CC[C@@H](O)C[C@@H](O)CC(=O)O[C@H]1C)C[C@H](O)[C@H]2C(=O)O [Amphotericin B, reference compound] | – | – | – | – | – | – | –
– | C=C(C)[C@@H]1CC[C@]2(COC(=O)C3C(C=C(C)C)C3(C)C)CC[C@]3(C)[C@H](CC[C@@H]4[C@@]5(C)CC[C@H](O)C(C)(C)[C@@H]5CC[C@]43C)[C@@H]12 (stereo partly shown) [Compound 3, 28-O-chrysanthemoylbetulin] | -5.8±2.5% | 35.4±3.8% | 10.6±0.5% | 0.3±1.7% | 46.9±6.0% | 4.4±1.4% | -23.2±11%
– | C=C(C)[C@@H]1CC[C@]2(COC(=O)c3cccnc3)CC[C@]3(C)[C@H](CC[C@@H]4[C@@]5(C)CC[C@H](O)C(C)(C)[C@@H]5CC[C@]43C)[C@@H]12 [Compound 6, 28-O-nicotinoylbetulin] | -0.4±3.4% | 36.7±7.6% | 7.5±1.3% | -0.6±6.8% | 60.1±4.0% | 2.2±2.2% | -17.7±2.0%
– | C=C(C)[C@@H]1CC[C@]2(COC(C)=O)CC[C@]3(C)[C@H](CC[C@@H]4[C@@]5(C)CC[C@H](O)C(C)(C)[C@@H]5CC[C@]43C)[C@@H]12 [Compound 9] | 5.1±1.0% | 3.0±10.1% | 9.1±2.1% | -0.2±7.1% | 50.9±2.1% | -0.6±3.3% | 5.1±6.9%
– | C=C(C)C1CCC2(CO)CCC3(C)C(CCC4C5(C)CCC(OC(C)=O)C(C)(C)C5CCC43C)C12 (stereo not shown) [Compound 12] | 3.8±14.1% | -18.0±27.4% | 14.5±1.3% | 1.0±5.0% | 54.7±7.9% | 1.8±1.2% | -16.3±7.4%
– | C=C(C)C1CCC2(COS(C)(=O)=O)CCC3(C)C(CCC4C5(C)CCC(OC(C)=O)C(C)(C)C5CCC43C)C12 (stereo not shown) [Compound 13] | 0.2±3.8% | -14.8±8.5% | 15.0±1.9% | -0.4±3.4% | 61.2±1.5% | 6.5±0.9% | -16.5±3.0%
– | C=C(C)[C@@H]1CC[C@]2(C(=O)OC)CC[C@]3(C)[C@H](CC[C@@H]4[C@@]5(C)CC[C@H](O)C(C)(C)[C@@H]5CC[C@]43C)[C@@H]12 [Compound 20, betulinic acid methyl ester] | 33.7±7.0% | 34.3±5.6% | 39% and 38.9±1.5% | 13.5±8.9% | 51% and 51.1±0.6% | 8.6±2.5% | 5.3±4.2%
